Test results published in patent EP1525218B1, “BICYCLIC OLIGOPEPTIDES AND THEIR USE AS GLUCAGON RECEPTOR ANTAGONISTS” (Boehringer Ingelheim Pharma GmbH & Co.KG, priority 2002, dated 2004).
pIC50: −log10 of the molar value. Like-named read-outs stand apart in the source and are kept apart here. Positions of bridges follow the written chain, without caps; N, C: chain ends. Residues, ends and D or L forms follow the SMILES beside them.

What was measured:
Solubility in buffer = type: physicochemical
Description: and the following solubilities:

human glucagon receptor = target: T1, human glucagon receptor (Homo sapiens, UniProt P47871); assay: Glucagon binding assay (competition binding with 125I-glucagon, BHK-21 cell membranes)
T1 construct: expressed in transfected cells; host or cells: BHK-21(C-13) baby hamster kidney cells, stably transfected (pcDNA3.1 construct, G-418 selection); plasma membranes
T1 sequence (P47871 26-477): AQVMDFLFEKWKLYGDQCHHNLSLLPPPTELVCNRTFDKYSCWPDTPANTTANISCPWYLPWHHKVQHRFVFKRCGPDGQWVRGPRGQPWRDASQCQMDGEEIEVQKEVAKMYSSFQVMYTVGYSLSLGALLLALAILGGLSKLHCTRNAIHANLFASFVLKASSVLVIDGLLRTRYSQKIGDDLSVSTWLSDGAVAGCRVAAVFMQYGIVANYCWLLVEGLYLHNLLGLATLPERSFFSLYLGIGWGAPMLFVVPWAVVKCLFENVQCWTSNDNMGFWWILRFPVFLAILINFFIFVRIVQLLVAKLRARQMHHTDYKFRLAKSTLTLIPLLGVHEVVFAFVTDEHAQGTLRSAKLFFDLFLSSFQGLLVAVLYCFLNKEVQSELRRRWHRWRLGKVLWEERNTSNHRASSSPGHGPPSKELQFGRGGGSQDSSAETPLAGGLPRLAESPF
Method: Binding of peptides to the glucagon receptor was assayed in a competition binding-assay using a membrane fraction containing the cloned human glucagon receptor and radiolabeled glucagon. The cDNA coding for the human glucagon receptor was cloned into expression vector pcDNA3.1 (Invitrogene). Baby hamster kidney cells (BHK-21(C-13) cells (ATCC)) were transfected with the expression construct for the human glucagon receptor and a stably transfected cell clone was isolated after selection with G-418 (Gibco). Plasma membranes containing the human glucagon receptor were prepared from stably transfected BHK-21 cells. Cells were grown to confluence, washed and detached with ice cold PBS buffer (Gibco), containing 0.05% EDTA and collected in PBS buffer. The cells were collected by centrifugation and suspended in 20 volumes of ice-cold tris buffer (10 mM tris/HCl, pH7.2; 0.01 mM PMSF (Phenylmethylsulfonyl fluoride)) and incubated for 90 minutes. […] The protein-bound radioactivity is separated from unbound ligand by filtration and washing on a Multiscreen-[…] (Millipore) using GC/B filters (Packard) and measured after addition of 20 μl Microscint 20 in a topcount scintillation counter (Packard). The non-specific binding is defined as radioactivity bound in the presence of 1 μM glucagon (Wherl GmbH). Accordingly an IC50 value can be calculated from the results obtained in the above test method. […]

[1] = Metabolic stability with liver microsomes; type: in vitro ADME; details: substrate initial conc. 1 µM, 37°C, up to 45 min
Method: (§1) Incubations with preparations of microsomes and cytosol and with plasma under conditions as described below are suitable to investigate the metabolic stability of test compounds (e.g. oxidative metabolism reactions and hydrolysis by esterases). The metabolic stability of the test compounds of examples 1 and 2 is investigated in liver microsomes and cytosol of humans, dogs and rats and in plasma of humans and rats.
(§2) Incubations of test compounds (final concentration: 1 µM) are performed with liver microsomes and cytosol (0.5 mg protein/ml) in Tris buffer (Tris-(hydroxymethyl)-aminomethane) pH 7.4 (0.1 M) containing magnesium chloride (5 mM) at 37°C for up to 45 min in a total volume of 100 µl. The reaction is initiated by addition of β-nicotinamide adenine dinucleotide phosphate, reduced form (NADPH, 1 mM) and terminated by addition of acetonitrile. After vortex mixing and centrifugation the supernatants are analyzed.
(§3) The samples are analyzed by on-line solid phase extraction and reversed phase HPLC coupled to electro-spray ionization tandem mass spectrometry. The measurements are performed on a triple quad mass spectrometer Quattro II (Micromass, Manchester, UK). The instrument operates at nominal mass resolution in SIR-mode. The analytes are quantified by detection of their quasimolecular ions [M+2H]^2+ m/z 1019 (Example 1) and m/z 1026 (Example 2).

[2] = Metabolic stability with liver cytosol; type: in vitro ADME; details: substrate initial conc. 1 µM, 37°C, up to 45 min
Method: as §1, §2, §3

Stability in plasma = type: in vitro ADME; details: Rat Plasma; substrate initial conc. 1 µM; 37°C, up to 45 min
Method: as §1
Incubations of test substrates (final concentration: 1 µM) are performed with human and rat plasma (heparin) containing 0.1 M Tris buffer pH 7.4. The reaction is initiated by addition of the test compound at 37°C for up to 45 min and terminated by addition of acetonitrile. After vortex mixing and centrifugation the supernatants are analyzed.
as §3

Compound	solubilities (Solubility in buffer; Buffer pH 3.0)	solubilities (Solubility in buffer; Buffer pH 7.4)	solubilities (Solubility in buffer; Buffer pH 10.0)	pIC50 (human glucagon receptor; competition with 125I-glucagon, membranes with cloned human glucagon receptor, read-out: IC50)	Half-lives, (t½ [min]) ([1]; Dog Micros)	Half-lives, (t½ [min]) ([1]; Human Micros)	Half-lives, (t½ [min]) ([1]; Rat Micros)	Half-lives, (t½ [min]) ([2]; Dog Cytosol)	Half-lives, (t½ [min]) ([2]; Human Cytosol)	Half-lives, (t½ [min]) ([2]; Rat Cytosol)	Half-lives, (t½ [min]) (Stability in plasma)	pIC50 (human glucagon receptor)
CC[C@H](C)[C@@H]1NC(=O)[C@@H]2CC(=O)NCC(=O)N[C@@H](CC(C)C)C(=O)N3CCC[C@H]3C(=O)N[C@@H](Cc3c[nH]c4ccccc34)C(=O)NCC(=O)N[C@@H](CSSC[C@@H](C(=O)O)NC(=O)[C@H](C)NC(=O)[C@H](Cc3c[nH]c4ccccc34)NC(=O)[C@@H]3CCCN3C(=O)[C@H]([C@@H](C)O)NC(=O)[C@H](CC(N)=O)NC(=O)[C@H](Cc3c[nH]c4ccccc34)NC(=O)CNC(=O)[C@@H]3CCCN3C1=O)C(=O)N1CCC[C@H]1C(=O)N[C@@H](CO)C(=O)N2 [Example 1] (GLPWGCPSDIPGWNTPWAC-OH; disulfide 6-19; lactam N-9)	0.003 mg/mL	0.120 mg/mL	0.092 mg/mL	7.00	stable	stable	stable	stable	stable	stable	stable	
CC[C@H](C)[C@@H]1NC(=O)[C@@H]2CC(=O)NCC(=O)N[C@@H](CC(C)C)C(=O)N3CCC[C@H]3C(=O)N[C@@H](Cc3c[nH]c4ccccc34)C(=O)NCC(=O)N[C@@H](CSSC[C@@H](C(=O)OC)NC(=O)[C@H](C)NC(=O)[C@H](Cc3c[nH]c4ccccc34)NC(=O)[C@@H]3CCCN3C(=O)[C@H]([C@@H](C)O)NC(=O)[C@H](CC(N)=O)NC(=O)[C@H](Cc3c[nH]c4ccccc34)NC(=O)CNC(=O)[C@@H]3CCCN3C1=O)C(=O)N1CCC[C@H]1C(=O)N[C@@H](CO)C(=O)N2 [Example 2] (GLPWGCPSDIPGWNTPWAC-OMe; disulfide 6-19; lactam N-9)	0.003 mg/mL	0.002 mg/mL	0.004 mg/mL		stable	stable	stable				stable	6.87
